System: GM-CSF stimulated STAT5 phosphorylation in CD14+ monocytes
Assay: Cellular JAK potency assay: inhibition of GM-CSF-induced pSTAT5
Type: cell-based
Conditions: Monocyte; CD14+ monocytes from human whole blood; read-out: pIC50, inhibition of GM-CSF-induced pSTAT5 (converted)
Description: The potency of test compounds for inhibition of granulocyte-macropage colony-stimulating factor (GM-CSF) stimulated STAT5 phosphorylation was measured in CD14-positive (CD14+) monocytes derived from human whole blood (Stanford Blood Center) using flow cytometry. Because GM-CSF signals through JAK, this assay provides a measure of JAK cellular potency. Monocytes were identified using a fluorescein isothiocyanate (FITC) conjugated anti-CD14 antibody (Clone RM052, Beckman Coulter), and an Alexa Fluor 647 conjugated anti-pSTAT5 antibody (pY694, BD Biosciences) was used to detect STAT5 phosphorylation. Human peripheral blood mononuclear cells (PBMC) were isolated from human whole blood of healthy donors using a ficoll gradient. […] Cells were washed twice with FACS buffer, and then re-suspended in 1:10 […] Alexa Fluor 647:FACS buffer (100 μL) for 30 min at RT in the dark, washed twice in FACS buffer, and analyzed using a MACSQuant flow cytometer (Miltenyi). To determine the inhibitory potency of the test compound, the median fluorescent intensity (MFI) of pSTAT5 was measured in CD14+ monocytes. IC50 values were determined from analysis of the inhibition curves of MFI vs compound concentration. Data are expressed as pIC50 (negative decadic logarithm IC50) values.

CCc1cc(O)ccc1-c1ccc2c(-c3nc4c([nH]3)CN(C(C)C)[C@H](C(=O)N3CC(N(C)C)C3)C4)n[nH]c2c1 [Compound 1, (S)-(3-(dimethylamino)azetidin-1-yl)(2-(6-(2-ethyl-4-hydroxyphenyl)-1H-indazol-3-yl)-5-isopropyl-4,5,6,7-tetrahydro-3H-imidazo[4,5-c]pyridin-6-yl)methanone]
IC50: 126 nM
